# Earlier results in US20060281913A1, “Process for the production of crystalline xylose from sugar cane bagasse, crystalline xylose obtained by said process, process for the production of xylitol from the said xylose and crystalline xylitol obtained thereby” (priority 2003, published 2006).
# Read-outs that look alike come from different tables or passages of the source.
# Tests used:
# [1] = relative to sucrose
SMILES,"solubility in methanol, ethanol and isopropanol",solubility in water,sweetening power ([1]; data collected from the literature),sweetening power ([1]; in words)
"O=C[C@H](O)[C@@H](O)[C@H](O)CO [crystalline xylose, xylose]",sparingly soluble,highly soluble,~67 % that of sucrose,
"OC[C@@H](O)[C@H](O)[C@@H](O)CO [crystalline xylitol, xylitol]",low solubility,high solubility,,equivalent to that of sucrose
